Columns and labels:
NCI-H23 [1] = details: NCI-H23 (Non-Small cell lung cancer); 48 h
HCC-2998 [2] = details: HCC-2998 (Colon); 48 h
HCT-15 [3] = details: HCT-15 (Colon); 48 h
KM12 [4] = details: KM12 (Colon); 48 h
SF-268 = SF-268 (CNS); 48 h
SF-539 = SF-539 (CNS); 48 h
U251 [5] = details: U251 (CNS); 48 h
MDA-MB-435 = MDA-MB-435 (Melanoma); 48 h
OVCAR-4 [6] = details: 48 h
OVCAR-8 = details: 48 h
NCI/ADR-RES = details: 48 h
SK-OV-3 = details: 48 h
CAKI-1 = CAKI-1 (Renal); 48 h
SN12C = SN12C (Renal); 48 h
UO-31 [7] = details: UO-31 (Renal); 48 h
A549/ATCC = assay: cells; details: Homo sapiens, A549, 48 h
NCI-H23 [8] = assay: cells; details: Homo sapiens, NCI-H23, 48 h
NCI-H322M = assay: cells; details: Homo sapiens, 48 h
HCC-2998 [9] = assay: cells; details: Homo sapiens, HCC 2998, 48 h
HCT-15 [10] = assay: cells; details: Homo sapiens, HCT-15, 48 h
KM12 [11] = assay: cells; details: Homo sapiens, KM12, 48 h
U251 [12] = assay: cells; details: Homo sapiens, U-251, 48 h
LOX IMVI = assay: cells; details: Homo sapiens, 48 h
SK-MEL-28 = assay: cells; details: Homo sapiens, SK-MEL-28, 48 h
SK-MEL-5 = assay: cells; details: Homo sapiens, SK-MEL-5, 48 h
OVCAR-4 [13] = assay: cells; details: Homo sapiens, OVCAR-4, 48 h
786-0 = assay: cells; details: Homo sapiens, 786-0, 48 h
RXF393 = assay: cells; details: Homo sapiens, RXF 393, 48 h
TK-10 = assay: cells; details: Homo sapiens, TK-10, 48 h
UO-31 [14] = assay: cells; details: Homo sapiens, UO-31, 48 h
MCF7 = assay: cells; details: Homo sapiens, MCF7, 48 h
MDA-MB-231/ATCC = assay: cells; details: Homo sapiens, MDA-MB-231, 48 h
HS578T = assay: cells; details: Homo sapiens, Hs-578T, 48 h
MDA-MB-468 = assay: cells; details: Homo sapiens, MDA-MB-468, 48 h

CC1(C)CCC(C)(C)c2cc(-c3ccc4cc(C(=O)NO)ccc4c3)ccc21 [hybrid 3]
TGI (NCI-H23 [1]): 2.43 µM
TGI (HCC-2998 [2]): 2.51 µM
TGI (HCT-15 [3]): 2.03 µM
TGI (KM12 [4]): 1.88 µM
TGI (SF-268): 1.85 µM
TGI (SF-539): 7.26 µM
TGI (U251 [5]): 1.69 µM
TGI (MDA-MB-435): 2.54 µM
TGI (OVCAR-4 [6]): 5.82 µM
TGI (OVCAR-8): 1.77 µM
TGI (NCI/ADR-RES): 1.76 µM
TGI (SK-OV-3): 11.7 µM
TGI (CAKI-1): 1.03 µM
TGI (SN12C): 2.37 µM
TGI (UO-31 [7]): 1.61 µM
GI50 (A549/ATCC): 0.473 µM
CC50 (A549/ATCC; read-out: LC50): 7.8 µM
GI50 (NCI-H23 [8]): 0.996 µM
CC50 (NCI-H23 [8]; read-out: LC50): 5.9 µM
GI50 (NCI-H322M): 0.446 µM
CC50 (NCI-H322M; read-out: LC50): 26.2 µM
GI50 (HCC-2998 [9]): 1.09 µM
CC50 (HCC-2998 [9]; read-out: LC50): 5.75 µM
GI50 (HCT-15 [10]): 0.381 µM
CC50 (HCT-15 [10]; read-out: LC50): 9.38 µM
GI50 (KM12 [11]): 0.616 µM
CC50 (KM12 [11]; read-out: LC50): 4.61 µM
GI50 (U251 [12]): 0.437 µM
CC50 (U251 [12]; read-out: LC50): 4.8 µM
GI50 (LOX IMVI): 0.372 µM
CC50 (LOX IMVI; read-out: LC50): 4.19 µM
GI50 (SK-MEL-28): 1.81 µM
CC50 (SK-MEL-28; read-out: LC50): 21.7 µM
GI50 (SK-MEL-5): 0.977 µM
CC50 (SK-MEL-5; read-out: LC50): 5.37 µM
GI50 (OVCAR-4 [13]): 0.533 µM
CC50 (OVCAR-4 [13]; read-out: LC50): 29.1 µM
GI50 (786-0): 1.1 µM
CC50 (786-0; read-out: LC50): 5.12 µM
GI50 (RXF393): 1.26 µM
CC50 (RXF393; read-out: LC50): 6.27 µM
GI50 (TK-10): 1.1 µM
CC50 (TK-10; read-out: LC50): 25 µM
GI50 (UO-31 [14]): 0.404 µM
CC50 (UO-31 [14]; read-out: LC50): 4.53 µM
GI50 (MCF7): 0.47 µM
CC50 (MCF7; read-out: LC50): 4.66 µM
GI50 (MDA-MB-231/ATCC): 1.2 µM
CC50 (MDA-MB-231/ATCC; read-out: LC50): 12 µM
GI50 (HS578T): 3.02 µM
CC50 (HS578T; read-out: LC50): 64.8 µM
GI50 (MDA-MB-468): 1.18 µM
CC50 (MDA-MB-468; read-out: LC50): 6.39 µM

Source: US20130165520A1, “Hybrid Molecule Having Mixed Retinoic Acid Receptor Agonism and Histone Deacetylase Inhibitory Properties” (priority 2010, published 2013)
